Experimental data: ChEMBL document CHEMBL1201862, “PubChem BioAssay data set” (2004)
Active and inactive are the calls of the source.

Experiments:
[1] = Shn3 3'UTR reporter inhibitors, dose response, cell-based, Clone20 osteoblasts, firefly luciferase, cherry-picked (AID 624132); assay type: functional;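 further: firefly luciferase luminescence from reporter carrying the Shn3 3'UTR in osteoblasts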
[2] = target: COUP transcription factor 2 (Homo sapiens, UniProt P24468); assay: Luminescence-based cell-based high throughput dose response assay to identify inhibitors of COUP-TFII (NR2F2).; assay type: functional;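 further: HEK293 cells transiently cotransfected with COUP-TFII expression vector and reporter; luciferase reporter luminescence driven by COUP-TFII from the pX2-168 reporter plasmid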
[3] = HepG2 cell cytotoxicity, dose response, cytotoxicity control for Shn3 inhibitor project, CellTiter-Glo, cherry-picked (AID 624134); assay type: functional, cell-based
[4] = control 3'UTR Renilla luciferase suppression, dose response, counter-screen for Shn3 inhibitor project, cell-based, Clone20-Shn3RL, cherry-picked (AID 624133); assay type: functional
[5] = Luminescence-based counterscreen assay for KLF5 inhibitors: dose response cell-based high throughput screening assay to identify cytotoxic compounds using the IEC-6 intestinal epithelial cell line. [Related pubchem assays: 1700 (Primary screen.), 1834 (Confirmation screen.), 1858 (Summary AID.), 1905 (Counterscreen.)]; assay type: functional
[6] = target: T1, Heat shock factor protein 1 (Mus musculus, UniProt P38532); assay: inhibition of MG132-induced HSE-luciferase signal, confirmation, cell-based, NIH3T3, luminescence, dose retest (AID 2382); assay type: functional;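 further: NIH3T3 fibroblasts with HSF1-driven luciferase reporter stressed by proteasome inhibitor MG132; luminescence from HSF1-driven luciferase expression after 8 hours of MG132 stress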
T1 sequence (P38532 whole entry): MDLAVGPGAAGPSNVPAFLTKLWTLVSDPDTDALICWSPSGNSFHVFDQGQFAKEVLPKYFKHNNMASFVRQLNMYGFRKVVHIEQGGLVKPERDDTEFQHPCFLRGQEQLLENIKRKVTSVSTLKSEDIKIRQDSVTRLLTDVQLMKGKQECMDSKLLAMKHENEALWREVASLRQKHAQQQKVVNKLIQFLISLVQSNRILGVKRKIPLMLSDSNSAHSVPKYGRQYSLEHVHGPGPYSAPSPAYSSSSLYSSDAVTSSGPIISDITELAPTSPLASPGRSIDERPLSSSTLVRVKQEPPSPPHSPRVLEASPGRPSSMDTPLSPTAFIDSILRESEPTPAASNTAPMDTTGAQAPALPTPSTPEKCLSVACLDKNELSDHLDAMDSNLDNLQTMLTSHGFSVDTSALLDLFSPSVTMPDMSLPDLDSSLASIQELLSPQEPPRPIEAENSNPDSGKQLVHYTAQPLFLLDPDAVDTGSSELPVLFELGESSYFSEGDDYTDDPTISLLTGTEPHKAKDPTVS

[7] = Luminescence Cell-Based Dose Confirmation HTS to Identify Inhibitors of Platelet Dense Granule Release. [Related pubchem assays: 1663 (Primary HTS), 1678 (Summary of Project)]; assay type: functional
[8] = target: Luciferin 4-monooxygenase (Photinus pyralis, UniProt P08659); assay: firefly luciferase enzyme inhibitors, dose response, biochemical, luminescence (AID 1891)
[9] = target: T2, Streptokinase A (Streptococcus pyogenes serotype M1, UniProt P10520); assay: S. pyogenes streptokinase expression inhibitors, potency, dose response, plasminogen activation absorbance, OD405 (AID 1914); assay type: functional, Streptococcus pyogenes M1 GAS;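 further: secreted streptokinase activity via plasminogen activation per viability signal from cell pellet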
T2 sequence (P10520 whole entry): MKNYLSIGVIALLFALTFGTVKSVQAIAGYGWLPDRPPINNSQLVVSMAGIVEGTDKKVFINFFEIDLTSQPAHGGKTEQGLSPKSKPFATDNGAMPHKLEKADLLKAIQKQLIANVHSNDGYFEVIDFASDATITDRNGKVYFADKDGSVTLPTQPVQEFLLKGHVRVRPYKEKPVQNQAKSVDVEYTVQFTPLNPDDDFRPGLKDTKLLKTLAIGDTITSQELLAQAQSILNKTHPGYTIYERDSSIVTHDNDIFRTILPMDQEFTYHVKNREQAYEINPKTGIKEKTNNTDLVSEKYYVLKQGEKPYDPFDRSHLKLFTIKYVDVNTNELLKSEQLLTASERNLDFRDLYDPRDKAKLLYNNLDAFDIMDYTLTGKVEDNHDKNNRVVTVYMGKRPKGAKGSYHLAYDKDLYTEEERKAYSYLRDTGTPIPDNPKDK

[10] = target: T3, Sentrin-specific protease 8 (Homo sapiens, UniProt Q96LD8); assay type: functional;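 further: luminescence read-out of SENP8 inhibition, dose-response confirmation following an ultra-high-throughput screen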
T3 sequence (Q96LD8 whole entry): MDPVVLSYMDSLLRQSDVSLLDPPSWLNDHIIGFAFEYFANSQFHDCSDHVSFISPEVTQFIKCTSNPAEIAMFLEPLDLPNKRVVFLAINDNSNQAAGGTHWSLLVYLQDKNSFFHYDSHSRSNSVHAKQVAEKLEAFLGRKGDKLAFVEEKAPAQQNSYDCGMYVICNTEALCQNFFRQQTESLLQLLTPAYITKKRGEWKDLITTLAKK

[11] = system: Streptococcus sp. 'group A'; assay: growth inhibition of control SK(-) GAS strain, dose response, counter-screen for streptokinase expression inhibitor project, luminescence, kanamycin, BacTiterGlo, confirmation (AID 1900); assay type: functional, organism-based
[12] = system: Streptococcus; assay: Group A Streptococcus viability loss, dose response, counter-screen for streptokinase expression inhibitor project, luminescence, BacTiterGlo (AID 1915); assay type: functional, organism-based;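 further: potency for reduction of bacterial viability or growth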
[13] = target: T4, Oxysterols receptor LXR-beta (Homo sapiens, UniProt P55055); assay type: functional, cell-based;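 further: agonist activity at LXR measured by a cell-based luminescence readout across a dose range, run as a counterscreen for daf-12 agonists; HEK293 cells with Gal4-LXR fusion and GAL4-driven luciferase reporter; potency for activation of Gal4-LXR reporter so compounds are agonists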
T4 sequence (P55055 whole entry): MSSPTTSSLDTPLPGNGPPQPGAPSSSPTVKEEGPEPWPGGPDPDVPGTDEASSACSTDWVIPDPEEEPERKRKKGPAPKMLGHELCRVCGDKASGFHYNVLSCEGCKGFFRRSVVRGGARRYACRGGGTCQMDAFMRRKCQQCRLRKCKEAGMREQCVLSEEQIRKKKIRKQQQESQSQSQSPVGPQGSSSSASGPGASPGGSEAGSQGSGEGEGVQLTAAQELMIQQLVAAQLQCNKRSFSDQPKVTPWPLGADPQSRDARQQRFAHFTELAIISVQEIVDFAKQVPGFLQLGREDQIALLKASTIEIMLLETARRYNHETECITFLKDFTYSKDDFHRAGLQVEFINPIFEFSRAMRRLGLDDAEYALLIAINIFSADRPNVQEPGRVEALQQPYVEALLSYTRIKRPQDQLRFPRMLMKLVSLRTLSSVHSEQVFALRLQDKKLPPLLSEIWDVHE

[14] = target: T5, Caspase-3 (Homo sapiens, UniProt P42574); assay type: functional;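 further: Dose-response selectivity test against caspase-3 for candidate inhibitors of sentrin-specific proteases (SENPs)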
T5 sequence (P42574 whole entry): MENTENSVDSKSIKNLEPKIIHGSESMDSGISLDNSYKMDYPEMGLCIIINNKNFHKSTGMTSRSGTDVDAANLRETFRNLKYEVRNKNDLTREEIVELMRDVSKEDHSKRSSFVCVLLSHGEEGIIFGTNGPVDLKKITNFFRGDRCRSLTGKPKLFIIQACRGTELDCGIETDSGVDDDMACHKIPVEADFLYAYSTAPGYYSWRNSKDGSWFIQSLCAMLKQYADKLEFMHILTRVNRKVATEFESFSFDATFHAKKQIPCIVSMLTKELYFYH

[15] = target: T6, Sentrin-specific protease 7 (Homo sapiens, UniProt Q9BQF6); assay type: functional;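 further: Luminescence-based dose-response confirmation of ultra-high-throughput screening hits, measuring inhibition of SENP7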
T6 sequence (Q9BQF6 whole entry): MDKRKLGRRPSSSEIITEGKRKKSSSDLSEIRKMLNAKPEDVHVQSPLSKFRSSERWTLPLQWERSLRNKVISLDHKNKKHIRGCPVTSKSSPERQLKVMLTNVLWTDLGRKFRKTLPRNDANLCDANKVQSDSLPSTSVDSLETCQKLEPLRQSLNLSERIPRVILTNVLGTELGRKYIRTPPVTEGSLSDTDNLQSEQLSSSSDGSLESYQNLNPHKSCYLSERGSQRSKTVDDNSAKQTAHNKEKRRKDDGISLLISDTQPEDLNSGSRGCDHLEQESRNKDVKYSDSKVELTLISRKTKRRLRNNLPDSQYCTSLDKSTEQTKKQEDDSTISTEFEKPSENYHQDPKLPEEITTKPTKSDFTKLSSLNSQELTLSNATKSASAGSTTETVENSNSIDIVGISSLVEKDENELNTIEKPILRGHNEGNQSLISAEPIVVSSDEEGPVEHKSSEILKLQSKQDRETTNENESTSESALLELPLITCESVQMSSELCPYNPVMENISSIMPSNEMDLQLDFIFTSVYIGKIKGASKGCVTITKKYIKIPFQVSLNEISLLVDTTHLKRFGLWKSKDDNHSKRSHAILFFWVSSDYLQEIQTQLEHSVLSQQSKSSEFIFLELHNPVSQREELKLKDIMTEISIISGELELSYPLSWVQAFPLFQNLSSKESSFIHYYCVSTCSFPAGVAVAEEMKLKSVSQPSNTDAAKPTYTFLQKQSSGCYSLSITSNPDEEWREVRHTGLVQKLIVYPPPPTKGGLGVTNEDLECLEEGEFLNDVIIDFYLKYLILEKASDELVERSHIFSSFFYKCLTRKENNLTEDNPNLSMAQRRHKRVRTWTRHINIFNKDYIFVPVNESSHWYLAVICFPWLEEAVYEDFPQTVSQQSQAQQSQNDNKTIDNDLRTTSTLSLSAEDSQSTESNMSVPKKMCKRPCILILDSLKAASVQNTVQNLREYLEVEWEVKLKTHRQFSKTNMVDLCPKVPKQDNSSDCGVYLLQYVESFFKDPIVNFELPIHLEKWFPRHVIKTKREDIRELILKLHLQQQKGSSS

[16] = target: T7, Sentrin-specific protease 6 (Homo sapiens, UniProt Q9GZR1); assay type: functional;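 further: Luminescence-based dose-response confirmatory assay of SENP6 inhibition, following up an ultra-high-throughput screen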
T7 sequence (Q9GZR1 whole entry): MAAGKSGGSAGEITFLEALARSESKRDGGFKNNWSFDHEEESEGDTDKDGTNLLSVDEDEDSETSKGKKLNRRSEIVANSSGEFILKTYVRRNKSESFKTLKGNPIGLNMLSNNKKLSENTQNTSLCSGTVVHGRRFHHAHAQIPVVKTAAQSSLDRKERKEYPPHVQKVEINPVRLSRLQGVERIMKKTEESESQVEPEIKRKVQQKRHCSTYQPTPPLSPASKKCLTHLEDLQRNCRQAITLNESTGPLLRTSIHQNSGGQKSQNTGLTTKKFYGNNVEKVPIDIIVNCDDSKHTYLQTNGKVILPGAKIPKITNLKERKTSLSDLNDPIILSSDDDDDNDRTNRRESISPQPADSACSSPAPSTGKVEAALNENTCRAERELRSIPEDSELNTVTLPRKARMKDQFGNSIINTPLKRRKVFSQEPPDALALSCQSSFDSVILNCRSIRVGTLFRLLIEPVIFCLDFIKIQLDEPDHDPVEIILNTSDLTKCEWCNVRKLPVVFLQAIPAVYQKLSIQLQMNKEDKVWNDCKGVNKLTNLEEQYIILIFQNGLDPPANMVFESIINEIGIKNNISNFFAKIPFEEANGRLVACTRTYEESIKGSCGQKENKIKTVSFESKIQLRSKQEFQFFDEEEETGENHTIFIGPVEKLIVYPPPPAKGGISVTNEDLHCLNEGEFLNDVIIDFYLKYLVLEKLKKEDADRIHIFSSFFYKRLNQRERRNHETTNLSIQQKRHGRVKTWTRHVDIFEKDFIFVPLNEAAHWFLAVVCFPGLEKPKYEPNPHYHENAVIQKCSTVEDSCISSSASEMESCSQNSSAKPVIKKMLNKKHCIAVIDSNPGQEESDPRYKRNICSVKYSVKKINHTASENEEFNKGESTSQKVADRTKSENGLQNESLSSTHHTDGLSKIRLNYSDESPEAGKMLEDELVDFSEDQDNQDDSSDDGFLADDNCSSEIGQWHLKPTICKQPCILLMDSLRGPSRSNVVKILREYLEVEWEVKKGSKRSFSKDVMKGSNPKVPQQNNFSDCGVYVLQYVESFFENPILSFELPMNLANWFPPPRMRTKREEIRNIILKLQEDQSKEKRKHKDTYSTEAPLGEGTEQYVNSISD

Sequence of COUP transcription factor 2 (P24468 whole entry): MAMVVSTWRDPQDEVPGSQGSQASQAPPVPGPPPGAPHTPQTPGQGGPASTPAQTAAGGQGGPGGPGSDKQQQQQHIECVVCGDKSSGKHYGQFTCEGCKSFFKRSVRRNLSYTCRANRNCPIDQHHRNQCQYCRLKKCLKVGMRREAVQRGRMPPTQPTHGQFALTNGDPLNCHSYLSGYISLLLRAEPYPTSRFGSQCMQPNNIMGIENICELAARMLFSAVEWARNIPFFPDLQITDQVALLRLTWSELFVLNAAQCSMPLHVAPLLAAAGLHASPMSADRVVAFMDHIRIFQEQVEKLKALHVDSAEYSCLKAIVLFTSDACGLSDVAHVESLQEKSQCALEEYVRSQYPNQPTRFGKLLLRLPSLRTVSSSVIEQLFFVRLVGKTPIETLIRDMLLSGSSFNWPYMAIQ
Sequence of Luciferin 4-monooxygenase (P08659 whole entry): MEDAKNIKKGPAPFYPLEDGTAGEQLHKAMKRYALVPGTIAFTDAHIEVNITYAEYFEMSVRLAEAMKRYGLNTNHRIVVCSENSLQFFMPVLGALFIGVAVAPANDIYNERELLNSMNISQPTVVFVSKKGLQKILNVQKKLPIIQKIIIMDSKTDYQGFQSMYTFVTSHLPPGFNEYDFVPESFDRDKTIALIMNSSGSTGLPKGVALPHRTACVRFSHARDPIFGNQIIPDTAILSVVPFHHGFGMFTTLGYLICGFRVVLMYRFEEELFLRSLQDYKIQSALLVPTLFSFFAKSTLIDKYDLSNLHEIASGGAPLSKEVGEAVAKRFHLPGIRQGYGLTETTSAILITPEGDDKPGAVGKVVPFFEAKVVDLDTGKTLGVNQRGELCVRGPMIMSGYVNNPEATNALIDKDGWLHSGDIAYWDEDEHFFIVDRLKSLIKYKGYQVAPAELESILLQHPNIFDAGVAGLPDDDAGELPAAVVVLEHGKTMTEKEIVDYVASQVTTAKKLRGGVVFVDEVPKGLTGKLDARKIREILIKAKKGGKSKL

| SMILES | AC50 [1] | IC50 [2] | AC50 [3] | AC50 [4] | IC50 [5] | EC50 [6] | EC50 [7] | EC50 [8] | EC50 [9] | IC50 [10] | EC50 [11] | EC50 [12] | EC50 [13] | IC50 [14] | IC50 [15] | IC50 [16] |
| --- | --- | --- | --- | --- | --- | --- | --- | --- | --- | --- | --- | --- | --- | --- | --- | --- |
| OC[C@@H]1CN(Cc2ccc(-c3ccccc3)cc2)C[C@H](n2cnc3c(NCc4ccc(F)cc4)ncnc32)O1 | 1.58 µM (active) | 8.22 µM (active) | 64.5 µM (active) | 4.44 µM (active) | – | – | – | – | – | – | – | – | – | – | – | – |
| COc1ccc(C(=O)Nc2ccccc2C(=O)N/N=C/c2ccc(O)c(OC)c2)cc1 | – | > 9.49 µM (active) | – | – | > 39.8 µM (not active) | < 0.16 µM (active) | 0.156 µM (active) | 0.149 µM (active) | – | – | – | – | – | – | – | – |
| O=c1c2cc(-c3ccccc3)sc2nc2n1CCC2 | – | – | – | – | – | – | – | – | > 150 µM (not active) | 10.9 µM (active) | 11.3 µM (active) | > 150 µM (not active) | > 67.5 µM (inactive) | 5.94 µM (active) | 6.17 µM (active) | 20.8 µM (active) |
